Data as given in PubChem BioAssay (NCI).
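96-well plates; 48 h exposure; 5 concentrations. Endpoints by linear interpolation between flanking doses. Not reached: highest tested concentration assigned. GI50 is the concentration that inhibits growth by half. TGI is the concentration that stops growth completely.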

Assays:
Experiment in all cases: DTP human tumour cell line panel, 48 h
[1] = system: 786-0 renal
[2] = system: A498 renal
[3] = system: A549 NSCLC
[4] = system: ACHN renal
[5] = system: BT-549 breast
[6] = system: CAKI-1 renal
[7] = system: COLO 205 colon
[8] = system: DU-145 prostate
[9] = system: EKVX NSCLC
[10] = system: HCC-2998 colon
[11] = system: HCT-116 colon
[12] = system: HCT-15 colon
[13] = system: HL-60(TB) leukemia
[14] = system: HOP-62 NSCLC
[15] = system: HOP-92 NSCLC
[16] = system: HS 578T breast
[17] = system: HT29 colon
[18] = system: IGROV1 ovarian
[19] = system: K-562 leukemia
[20] = system: KM12 colon
[21] = system: LOX IMVI melanoma
[22] = system: M14 melanoma
[23] = system: MALME-3M melanoma
[24] = system: MCF7 breast
[25] = system: MDA-MB-231 breast
[26] = system: MDA-MB-435
[27] = system: MOLT-4 leukemia
[28] = system: NCI-H226 lung
[29] = system: NCI-H23 lung
[30] = system: NCI-H460 lung
[31] = system: NCI-H522 lung
[32] = system: NCI/ADR-RES ovarian
[33] = system: OVCAR-3 ovarian
[34] = system: OVCAR-4 ovarian
[35] = system: OVCAR-5 ovarian
[36] = system: OVCAR-8 ovarian
[37] = system: PC-3 prostate
[38] = system: RXF 393 renal
[39] = system: SF-268 CNS
[40] = system: SF-295 CNS
[41] = system: SF-539 CNS
[42] = system: SK-MEL-2 melanoma
[43] = system: SK-MEL-28 melanoma
[44] = system: SK-MEL-5 melanoma
[45] = system: SK-OV-3 ovarian
[46] = system: SN12C renal
[47] = system: SNB-19 CNS
[48] = system: SNB-75 CNS
[49] = system: SR leukemia
[50] = system: SW-620 colon
[51] = system: T-47D breast
[52] = system: TK-10 renal
[53] = system: U251 CNS
[54] = system: UACC-257 melanoma
[55] = system: UACC-62 melanoma
[56] = system: UO-31 renal

## COc1cc(-c2cc(C(=O)N3CCN(C(=O)c4ccccc4NCc4cccs4)CC3)nc3cc(-c4ccccc4)nn23)cc(OC)c1OC
[1]
  GI50: 11.4 µM
  TGI: > 100 µM
[2]
  GI50: 8.44 µM
  TGI: > 100 µM
[3]
  GI50: 5.68 µM
  TGI: > 100 µM
[4]
  GI50: 4.93 µM
  TGI: > 100 µM
[5]
  GI50: 6.26 µM
  TGI: > 100 µM
[6]
  GI50: 2.78 µM
  TGI: 8.33 µM
[7]
  GI50: 4.04 µM
  TGI: 26.5 µM
[8]
  GI50: 5 µM
  TGI: 40.6 µM
[9]
  GI50: 53.9 µM
  TGI: > 100 µM
[10]
  GI50: 14.3 µM
  TGI: > 100 µM
[11]
  GI50: 4.49 µM
  TGI: > 100 µM
[12]
  GI50: 4.43 µM
  TGI: > 100 µM
[13]
  GI50: 6.15 µM
  TGI: 75.4 µM
[14]
  GI50: 11 µM
  TGI: 86.7 µM
[15]
  GI50: 2.41 µM
  TGI: 9.22 µM
[16]
  GI50: 36.2 µM
  TGI: > 100 µM
[17]
  GI50: 3.78 µM
  TGI: 15 µM
[18]
  GI50: 13.9 µM
  TGI: > 100 µM
[19]
  GI50: 1.38 µM
  TGI: 17.4 µM
[20]
  GI50: 3.16 µM
  TGI: > 100 µM
[21]
  GI50: 6.04 µM
  TGI: > 100 µM
[22]
  GI50: 5.91 µM
  TGI: > 100 µM
[23]
  GI50: > 100 µM
  TGI: > 100 µM
[24]
  GI50: 2.56 µM
  TGI: > 100 µM
[25]
  GI50: 8.67 µM
  TGI: > 100 µM
[26]
  GI50: 1.16 µM
  TGI: 4.34 µM
[27]
  GI50: 43.7 µM
  TGI: > 100 µM
[28]
  GI50: 6.39 µM
  TGI: > 100 µM
[29]
  GI50: 15.7 µM
  TGI: > 100 µM
[30]
  GI50: 4.26 µM
  TGI: > 100 µM
[31]
  GI50: 1.67 µM
  TGI: 4.68 µM
[32]
  GI50: 2.6 µM
  TGI: 9.29 µM
[33]
  GI50: 3.03 µM
  TGI: 11.3 µM
[34]
  GI50: 5.55 µM
  TGI: > 100 µM
[35]
  GI50: 15.1 µM
  TGI: > 100 µM
[36]
  GI50: 30.3 µM
  TGI: > 100 µM
[37]
  GI50: 4.18 µM
  TGI: > 100 µM
[38]
  GI50: 2.45 µM
  TGI: 8.01 µM
[39]
  GI50: 5.93 µM
  TGI: > 100 µM
[40]
  GI50: 3.78 µM
  TGI: > 100 µM
[41]
  GI50: 9.85 µM
  TGI: > 100 µM
[42]
  GI50: 3.73 µM
  TGI: 15.6 µM
[43]
  GI50: 9.62 µM
  TGI: > 100 µM
[44]
  GI50: 2.85 µM
  TGI: 11.5 µM
[45]
  GI50: 5.5 µM
  TGI: > 100 µM
[46]
  GI50: 29.1 µM
  TGI: > 100 µM
[47]
  GI50: 8.99 µM
  TGI: > 100 µM
[48]
  GI50: 3.32 µM
  TGI: 27.6 µM
[49]
  GI50: 3.31 µM
  TGI: > 100 µM
[50]
  GI50: 4.7 µM
  TGI: > 100 µM
[51]
  GI50: 8.38 µM
  TGI: > 100 µM
[52]
  GI50: 20.6 µM
  TGI: > 100 µM
[53]
  GI50: 5.76 µM
  TGI: > 100 µM
[54]
  GI50: > 100 µM
  TGI: > 100 µM
[55]
  GI50: 2.8 µM
  TGI: > 100 µM
[56]
  GI50: 6.99 µM
  TGI: > 100 µM
